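Where inhibition never reached the appropriate level, the endpoint shown equals the highest concentration tested. Otherwise, values were interpolated linearly from a five-concentration, 48-hour dose response in 96-well plates. GI50 = concentration required for 50% inhibition of growth. At the TGI there is no net growth.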
Legend:
Experiment in all cases: NCI anticancer screen, dose series, 48 h
HOP-62 NSCLC = tested on: HOP-62 NSCLC
M14 melanoma = tested on: M14 melanoma
SF-539 CNS = tested on: SF-539 CNS
MCF7 breast = tested on: MCF7 breast
EKVX NSCLC = tested on: EKVX NSCLC
A498 renal = tested on: A498 renal
RXF 393 renal = tested on: RXF 393 renal
786-0 renal = tested on: 786-0 renal
UO-31 renal = tested on: UO-31 renal
BT-549 breast = tested on: BT-549 breast
HCC-2998 colon = tested on: HCC-2998 colon
HCT-15 colon = tested on: HCT-15 colon
DU-145 prostate = tested on: DU-145 prostate
CAKI-1 renal = tested on: CAKI-1 renal
SNB-19 CNS = tested on: SNB-19 CNS
SW-620 colon = tested on: SW-620 colon
OVCAR-5 ovarian = tested on: OVCAR-5 ovarian
A549 NSCLC = tested on: A549 NSCLC
CCRF-CEM leukemia = tested on: CCRF-CEM leukemia
HS 578T breast = tested on: HS 578T breast
PC-3 prostate = tested on: PC-3 prostate
NCI-H226 lung = tested on: NCI-H226 lung
COLO 205 colon = tested on: COLO 205 colon
K-562 leukemia = tested on: K-562 leukemia
UACC-62 melanoma = tested on: UACC-62 melanoma
SK-OV-3 ovarian = tested on: SK-OV-3 ovarian
SK-MEL-2 melanoma = tested on: SK-MEL-2 melanoma
HL-60(TB) leukemia = tested on: HL-60(TB) leukemia
SF-268 CNS = tested on: SF-268 CNS
OVCAR-3 ovarian = tested on: OVCAR-3 ovarian
MALME-3M melanoma = tested on: MALME-3M melanoma
SR leukemia = tested on: SR leukemia
OVCAR-4 ovarian = tested on: OVCAR-4 ovarian
NCI-H522 lung = tested on: NCI-H522 lung
MDA-MB-231 breast = tested on: MDA-MB-231 breast
OVCAR-8 ovarian = tested on: OVCAR-8 ovarian
MOLT-4 leukemia = tested on: MOLT-4 leukemia
SNB-75 CNS = tested on: SNB-75 CNS
HOP-92 NSCLC = tested on: HOP-92 NSCLC
SK-MEL-28 melanoma = tested on: SK-MEL-28 melanoma
ACHN renal = tested on: ACHN renal
KM12 colon = tested on: KM12 colon
RPMI-8226 leukemia = tested on: RPMI-8226 leukemia
TK-10 renal = tested on: TK-10 renal
LOX IMVI melanoma = tested on: LOX IMVI melanoma
NCI-H460 lung = tested on: NCI-H460 lung
MDA-MB-435 = tested on: MDA-MB-435
IGROV1 ovarian = tested on: IGROV1 ovarian
SN12C renal = tested on: SN12C renal
HT29 colon = tested on: HT29 colon
SF-295 CNS = tested on: SF-295 CNS
NCI/ADR-RES ovarian = tested on: NCI/ADR-RES ovarian
MDA-MB-468 breast = tested on: MDA-MB-468 breast
NCI-H23 lung = tested on: NCI-H23 lung
U251 CNS = tested on: U251 CNS
SK-MEL-5 melanoma = tested on: SK-MEL-5 melanoma
HCT-116 colon = tested on: HCT-116 colon
T-47D breast = tested on: T-47D breast
UACC-257 melanoma = tested on: UACC-257 melanoma

## CNc1nc2ccccc2n2c(-c3ccc(O)c(O)c3)cnc12
HOP-62 NSCLC
  GI50: < 0.01 µM
  TGI: 26.1 µM
M14 melanoma
  GI50: < 0.01 µM
  TGI: 2.83 µM
SF-539 CNS
  GI50: < 0.01 µM
  TGI: < 0.01 µM
MCF7 breast
  GI50: < 0.01 µM
  TGI: > 38.5 µM
EKVX NSCLC
  GI50: < 0.0207 µM
  TGI: 32.7 µM
A498 renal
  GI50: 20.7 µM
  TGI: 61.6 µM
RXF 393 renal
  GI50: < 0.01 µM
  TGI: 14.8 µM
786-0 renal
  GI50: 0.113 µM
  TGI: 21.5 µM
UO-31 renal
  GI50: < 0.01 µM
  TGI: 15.9 µM
BT-549 breast
  GI50: < 0.01 µM
  TGI: 1.16 µM
HCC-2998 colon
  GI50: < 0.01 µM
  TGI: 15 µM
HCT-15 colon
  GI50: < 0.01 µM
  TGI: 31.3 µM
DU-145 prostate
  GI50: < 0.01 µM
  TGI: > 33.9 µM
CAKI-1 renal
  GI50: < 0.01 µM
  TGI: 22.2 µM
SNB-19 CNS
  GI50: < 0.01 µM
  TGI: 31.1 µM
SW-620 colon
  GI50: < 0.01 µM
  TGI: > 69.9 µM
OVCAR-5 ovarian
  GI50: < 0.01 µM
  TGI: 23.3 µM
A549 NSCLC
  GI50: < 0.01 µM
  TGI: > 35 µM
CCRF-CEM leukemia
  GI50: < 0.01 µM
  TGI: 1.77 µM
HS 578T breast
  GI50: < 0.01 µM
  TGI: 8.13 µM
PC-3 prostate
  GI50: < 0.01 µM
  TGI: 25.9 µM
NCI-H226 lung
  GI50: 1.41 µM
  TGI: 37.9 µM
COLO 205 colon
  GI50: 0.128 µM
  TGI: 1.56 µM
K-562 leukemia
  GI50: < 0.01 µM
  TGI: > 100 µM
UACC-62 melanoma
  GI50: < 0.01 µM
  TGI: 5.09 µM
SK-OV-3 ovarian
  GI50: 0.191 µM
  TGI: 13.6 µM
SK-MEL-2 melanoma
  GI50: < 0.01 µM
  TGI: 5.75 µM
HL-60(TB) leukemia
  GI50: < 0.01 µM
  TGI: < 0.01 µM
SF-268 CNS
  GI50: < 0.0226 µM
  TGI: 54.7 µM
OVCAR-3 ovarian
  GI50: < 0.01 µM
  TGI: 4.62 µM
MALME-3M melanoma
  GI50: < 0.01 µM
  TGI: 19.3 µM
SR leukemia
  GI50: < 0.01 µM
  TGI: > 34 µM
OVCAR-4 ovarian
  GI50: 0.475 µM
  TGI: > 78.8 µM
NCI-H522 lung
  GI50: < 0.01 µM
  TGI: < 0.01 µM
MDA-MB-231 breast
  GI50: < 0.01 µM
  TGI: < 0.0149 µM
OVCAR-8 ovarian
  GI50: < 0.01 µM
  TGI: 0.507 µM
MOLT-4 leukemia
  GI50: < 0.01 µM
  TGI: 18.9 µM
SNB-75 CNS
  GI50: < 0.01 µM
  TGI: 14.8 µM
HOP-92 NSCLC
  GI50: 0.17 µM
  TGI: 10.5 µM
SK-MEL-28 melanoma
  GI50: < 0.01 µM
  TGI: 23.3 µM
ACHN renal
  GI50: < 0.01 µM
  TGI: 20.9 µM
KM12 colon
  GI50: < 0.01 µM
  TGI: 26.3 µM
RPMI-8226 leukemia
  GI50: < 0.01 µM
  TGI: 6.6 µM
TK-10 renal
  GI50: 7.98 µM
  TGI: 44.3 µM
LOX IMVI melanoma
  GI50: < 0.01 µM
  TGI: 13.7 µM
NCI-H460 lung
  GI50: < 0.01 µM
  TGI: 10.5 µM
MDA-MB-435
  GI50: < 0.01 µM
  TGI: 1.29 µM
IGROV1 ovarian
  GI50: < 0.01 µM
  TGI: 18.9 µM
SN12C renal
  GI50: < 0.01 µM
  TGI: 10.7 µM
HT29 colon
  GI50: 0.0367 µM
  TGI: 1.64 µM
SF-295 CNS
  GI50: < 0.011 µM
  TGI: 1.74 µM
NCI/ADR-RES ovarian
  GI50: < 0.01 µM
  TGI: < 0.01 µM
MDA-MB-468 breast
  GI50: < 0.01 µM
  TGI: < 0.01 µM
NCI-H23 lung
  GI50: < 0.01 µM
  TGI: 9.56 µM
U251 CNS
  GI50: < 0.01 µM
  TGI: > 39.2 µM
SK-MEL-5 melanoma
  GI50: < 0.01 µM
  TGI: 0.0142 µM
HCT-116 colon
  GI50: < 0.01 µM
  TGI: 0.963 µM

## O=C1Nc2ccc(F)cc2/C1=C/c1cccc(OCc2ccccn2)c1
HOP-62 NSCLC
  GI50: 14.4 µM
  TGI: 30.8 µM
M14 melanoma
  GI50: 15.7 µM
  TGI: 31.5 µM
SF-539 CNS
  GI50: 16.3 µM
  TGI: 30.4 µM
MCF7 breast
  GI50: 12.1 µM
  TGI: 26.4 µM
EKVX NSCLC
  GI50: 13 µM
  TGI: 26.9 µM
A498 renal
  GI50: 54.3 µM
  TGI: > 100 µM
RXF 393 renal
  GI50: 13.3 µM
  TGI: 26.4 µM
786-0 renal
  GI50: 15 µM
  TGI: 29.7 µM
BT-549 breast
  GI50: 15 µM
  TGI: 30.1 µM
HCC-2998 colon
  GI50: 16.3 µM
  TGI: 30.3 µM
HCT-15 colon
  GI50: 16.5 µM
  TGI: 34.4 µM
DU-145 prostate
  GI50: 18.2 µM
  TGI: 33.5 µM
CAKI-1 renal
  GI50: 19.6 µM
  TGI: 55.5 µM
SNB-19 CNS
  GI50: 17.2 µM
  TGI: 33.2 µM
SW-620 colon
  GI50: 17.2 µM
  TGI: 36 µM
OVCAR-5 ovarian
  GI50: 16 µM
  TGI: 31 µM
A549 NSCLC
  GI50: 18.9 µM
  TGI: 59.9 µM
CCRF-CEM leukemia
  GI50: 25.9 µM
  TGI: 71.8 µM
HS 578T breast
  GI50: 17.6 µM
  TGI: 63.3 µM
PC-3 prostate
  GI50: 18.7 µM
  TGI: 48.7 µM
NCI-H226 lung
  GI50: 15 µM
  TGI: 29.9 µM
COLO 205 colon
  GI50: 16.3 µM
  TGI: 31 µM
K-562 leukemia
  GI50: 17.5 µM
  TGI: 57.3 µM
UACC-62 melanoma
  GI50: 13.6 µM
  TGI: 27.7 µM
SK-OV-3 ovarian
  GI50: 18.6 µM
  TGI: 50 µM
HL-60(TB) leukemia
  GI50: 16.4 µM
  TGI: 39.3 µM
SF-268 CNS
  GI50: 17.1 µM
  TGI: 39.3 µM
OVCAR-3 ovarian
  GI50: 15.2 µM
  TGI: 32.4 µM
MALME-3M melanoma
  GI50: 17.5 µM
  TGI: 40.1 µM
SR leukemia
  GI50: 16.4 µM
  TGI: 42.6 µM
OVCAR-4 ovarian
  GI50: 22 µM
  TGI: 63.3 µM
NCI-H522 lung
  GI50: 15.9 µM
  TGI: 33 µM
OVCAR-8 ovarian
  GI50: 16.1 µM
  TGI: 31.7 µM
MOLT-4 leukemia
  GI50: 17.5 µM
  TGI: 40 µM
HOP-92 NSCLC
  GI50: 11.3 µM
  TGI: 36.3 µM
T-47D breast
  GI50: 15 µM
  TGI: 34 µM
SK-MEL-28 melanoma
  GI50: 18.4 µM
  TGI: 37.1 µM
ACHN renal
  GI50: 16.4 µM
  TGI: 33.5 µM
KM12 colon
  GI50: 19 µM
  TGI: 37.3 µM
RPMI-8226 leukemia
  GI50: 17.3 µM
  TGI: 48 µM
TK-10 renal
  GI50: 18.1 µM
  TGI: 32.5 µM
LOX IMVI melanoma
  GI50: 14.9 µM
  TGI: 29 µM
NCI-H460 lung
  GI50: 19.8 µM
  TGI: 44.4 µM
MDA-MB-435
  GI50: 18.5 µM
  TGI: 36.6 µM
IGROV1 ovarian
  GI50: 17 µM
  TGI: 36.2 µM
SN12C renal
  GI50: 16.8 µM
  TGI: 34.4 µM
UACC-257 melanoma
  GI50: 14.4 µM
  TGI: 30.1 µM
HT29 colon
  GI50: 17.5 µM
  TGI: 34.7 µM
SF-295 CNS
  GI50: 16 µM
  TGI: 30.3 µM
NCI/ADR-RES ovarian
  GI50: 16.8 µM
  TGI: 39.3 µM
MDA-MB-468 breast
  GI50: 14.2 µM
  TGI: 29.3 µM
NCI-H23 lung
  GI50: 15 µM
  TGI: 28.8 µM
U251 CNS
  GI50: 15.2 µM
  TGI: 33.3 µM
SK-MEL-5 melanoma
  GI50: 16.6 µM
  TGI: 30.5 µM
HCT-116 colon
  GI50: 13.7 µM
  TGI: 28.5 µM

From PubChem BioAssay (NCI)
